Values joined by “and” are separate entries in the source; they are usually repeats but may differ in a detail not shown here. Identical values can stand only once. Like-named read-outs stand apart in the source and are kept apart here.
How the values were obtained:
[1] = test system: 3D7-strain P. falciparum asexual parasites; assay: P. falciparum asexual growth inhibition assay (Pf GIA); format: cell-based, Plasmodium falciparum; conditions: Plasmodium falciparum
How it was run: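 0.25% parasitemia, 2% Hct, RPMI/HEPES/hypoxanthine/5% Albumax; compound dose response, 72 h, 37°C, 5% CO2, 5% O2, 90% N2. Freeze-thaw, then LDH assay, A650. % inhibition vs chloroquine (50 μM)/DMSO, mean of 3 independent runs.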

HepG2 cytotoxicity assay = conditions: human, HepG2 cells
How it was run: (§1)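 Cells at 2,500 per well in MEM with 10% fetal bovine serum and 1% NEAA were exposed to test compounds for 48 h at 37°C, 5% CO2. Viability was read by fluorescence, with percent inhibition calculated against 50 μM doxorubicin (positive) and DMSO (negative) controls.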

HepG2 cells [2] = assay: HepG2 cytotoxicity assay
How it was run: as §1

[3] = test system: P. berghei ookinete development; conditions: read-out: IC50 Pb ODA; dose response, at least triplicate
[4] = test system: P. falciparum late stage (stages IV-V) gametocytes; set-up: method as in Almela et al 2016; conditions: TCAMS screen comparison; ref Almela et al 2016; read-out: Pf GCT ATP IC50; cited from earlier work
[5] = test system: P. falciparum female gametocytes; set-up: method as in Miguel-Blanco et al 2017; conditions: TCAMS screen comparison; ref Miguel-Blanco et al 2017; read-out: Pf FGAA IC50; cited from earlier work
[6] = test system: P. falciparum oocyst intensity; set-up: method as in Colmenarejo et al., 2018; conditions: 2 μM; ref Colmenarejo et al., 2018; cited from earlier work
[7] = test system: P. falciparum male gametogenesis; set-up: method as in Colmenarejo et al., 2018; conditions: 2 μM; ref Colmenarejo et al., 2018; cited from earlier work
HepG2 cells [8] = conditions: cited from earlier work
[9] = test system: P. berghei ookinete development; assay: microbe, parasite or virus in culture; conditions: Plasmodium berghei
[10] = test system: P. berghei oocyst intensity in Anopheles stephensi mosquitoes; assay: P. berghei standard membrane feeding assay (Pb SMFA)
[11] = test system: P. falciparum male gametocytes; assay: P. falciparum Dual Gamete Formation Assay (Pf DGFA), male readout
[12] = test system: P. falciparum female gametocytes; assay: P. falciparum Dual Gamete Formation Assay (Pf DGFA), female readout

`CCC1CN2CCc3cc(OC)c(OC)cc3C2CC1CC1NCCc2cc(OC)c(OC)cc21` (stereo not shown) [TCMDC-125849] showed an IC50 ([1]; 3D7, dose response confirmation, read-out: Pf asexual growth inhibition assays IC50) of 42 nM, an IC50 ([1]; 3D7, 72 h, LDH readout, read-out: IC50 Pf Asexual) of 41.9 nM and an IC50 at 48 h (HepG2 cytotoxicity assay) of 24000 nM. The IC50 (HepG2 cells [2]; Homo sapiens, HepG2, 48 h, read-out: IC50 HepG2) was 24000 nM, the “Unified cytotox” value (HepG2 cells [2]; human) was 14.64 µM and the “HepG2 cytoxicity” value (HepG2 cells [2]; value reported with the Pb ODA screen, this manuscript) was 23.99 µM. For the same molecule, the IC50 [3] was > 250 nM and 268 nM, the IC50 [4] was 120 nM and the IC50 [5] was 1820 nM. For the same molecule, the “inhibition of oocyst intensity in P. falciparum” value [6] was 100%, the “inhibition of male gametogenesis in P. falciparum” value [7] was “total inhibition” and the “HepG2 cytoxicity” value (HepG2 cells [8]; value reported with the Pf FGAA screen, ref Miguel-Blanco et al 2017) was 2.24 µM. The “HepG2 cytoxicity” value (HepG2 cells [8]; value reported with the Pf GCT ATP screen, ref Almela et al 2016) was 17.68 µM, the inhibition at 1 µM ([9]; read-out: % inhibition, Replicate A) was 118% and the inhibition at 1 µM ([9]; read-out: % inhibition, Replicate B) was 98.5%. The IC50 ([9]; read-out: IC50 Pb ODA, dose response, at least triplicate) was 0.268 µM, the IC50 ([9]; read-out: Pb ODA IC50 (µM), this manuscript) was 0.27 µM and the “% inhibition Pb SMFA 1 μM (±SEM)” value ([10]; inhibition of oocyst intensity at 1 μM) was 71.4%. For the same molecule, the inhibition at 1 µM ([10]; read-out: % inhibition Pb SMFA 1 μM (±SEM), inhibition of oocyst intensity at 1 μM) was 71.4%, the “Pf DGFA Male, Expt 1” value ([11]; 1µM, Expt 1) was 77.97 and the “Pf DGFA Male, Expt 2” value ([11]; 1µM, Expt 2) was 55.40. The “Pf DGFA Male, Expt 3” value ([11]; 1µM, Expt 3) was 60.36, the “Pf DGFA Male, Expt 4” value ([11]; 1µM, Expt 4) was 68.13 and the “% inhibition Pf DGFA (male) 1 μM (±SEM)” value ([11]; 1 μM, mean of four experiments) was 65.46%. For the same molecule, the inhibition at 1 µM ([11]; Plasmodium falciparum, read-out: % inhibition Pf DGFA (male) 1 μM (±SEM), 1 μM, mean of four experiments) was 65.5%, the “Pf DGFA Female, Expt 1” value ([12]; 1µM, Expt 1) was 99.68 and the “Pf DGFA Female, Expt 2” value ([12]; 1µM, Expt 2) was 99.20. The “Pf DGFA Female, Expt 3” value ([12]; 1µM, Expt 3) was 99.79, the “Pf DGFA Female, Expt 4” value ([12]; 1µM, Expt 4) was 98.70 and the “% inhibition Pf DGFA (female) 1 μM (±SEM)” value ([12]; 1 μM, mean of four experiments) was 99.34%. The inhibition at 1 µM ([12]; Plasmodium falciparum, read-out: % inhibition Pf DGFA (female) 1 μM (±SEM), 1 μM, mean of four experiments) was 99.3%.

Reference: paper PMC6753678, “Fueling Open Innovation for Malaria Transmission-Blocking Drugs: Hundreds of Molecules Targeting Early Parasite Mosquito Stages” (Frontiers in Microbiology, 2019)
